What was measured:
[1] = test system: phosphorylation of H2AX in LN229 cells; experiment: Phosphorylation of γ-H2AX assay (immunoblot), LN229; assay type: cell-based, human; conditions: LN229, 16 hours
[2] = Tolerability in non-tumor-bearing nude mice; assay type: in vivo, mouse; conditions: 5 or 10 mg/kg IV once a week for four weeks
Procedure: The tumor-suppressive activity of QBS10072S was evaluated in two orthotopic murine models of GBM using luciferase-expressing U251 and LN229 cell lines. Tumor volume was monitored by BLI measurement. The tolerability of QBS10072S was first tested by dosing 5 or 10 mg/kg IV once a week for four weeks into non-tumor-bearing nude mice (Figure 6). The body weights and white blood cell counts were not affected by this treatment, so QBS10072S was tested at various doses up to 10 mg/kg in the GBM models.
Figure 6 Tolerability of QBS10072S in nude mice Non-tumor-bearing nude mice were dosed IV with vehicle or QBS10072S (5 or 10 mg/kg) once a week for four weeks (arrows). Body weights were measured every three days and complete blood counts were determined once a week for seven weeks. A: Percent change in body weight over the course of the study, normalized to pre-dose weight. B: White blood cell (WBC) counts for each study arm. Horizontal bars represent the normal range of WBCs in these mice.

[3] = Cytotoxicity in normal human astrocytes (CellTiter-Glo); assay type: cell-based; conditions: normal human astrocytes (NHA), read-out: LC50
Procedure: In vitro activity of QBS10072S was assessed using a modified clonogenic cell viability assay in 96-well clear-bottom plates. […] For GBM cell lines, 2000 cells/well were plated. On day 2 (GBM) or day 3 (LLC-PK1) after original plating, cells were washed twice with PBS and incubated with 50 μL of various concentrations of QBS10072S in PBS in at least quadruplicate. After 30 minutes at 37°C, 200 μL of growth medium was added to each well. Clonal populations were allowed to grow until the control wells (mock treatment) were near confluence (7 to 10 days). At this point, 170 μL media were removed and 60 μL CellTiter-Glo® (Promega, Madison, WI) were added to each well. Plates were placed on an orbital shaker for three minutes to lyse the cells and then incubated for an additional 10 minutes at RT to stabilize the luminescent signal. Luminescence was recorded using an EnSpire® Multimode Plate Reader (Perkin Elmer). Background (luminescence from wells incubated with 100 μM melphalan or lomustine) was subtracted and data were normalized to the control. EC50s were determined by non-linear regression using GraphPad Prism.
Cells were incubated with a titration of QBS10072S or melphalan and cell viability was measured by CellTiter-Glo. LC50 values for each compound were determined.

[4] = test system: breast cancer metastatic tumors; design: method as in PMID 34635566; conditions: leptomeningeal metastatic disease model, BBB never disrupted; cited from earlier work
U87-MGMT cells = experiment: WST1 cell viability assay, U87-MGMT; assay type: cell-based; conditions: Homo sapiens, read-out: LC50 (μM ± SD)
Procedure: In vitro activities of QBS10072S and temozolomide (TMZ) in U87 and U87-MGMT cells were assessed using the WST1 cell viability assay in 96-well plates in which 500/well of cells were plated in sextuplets for each condition. To avoid cell loss, the following washing and medium removing procedures were all done using a P200 pipet without vacuum aspiration. For QBS10072S treatment, cells were washed with PBS the next day and incubated with 50 μL of various concentrations of QBS10072S in PBS for 1 hour at 37°C. After incubation, 150 μL of growth medium was added to each well. The medium was subsequently changed every two days until day 7. For TMZ treatment, cells were treated with 100 μL of various concentrations of TMZ in a growth medium for 2 days. After incubation, cells were put back in a normal growth medium and continued culturing for five days. In the end, 10 μL of WST1 reagent was added to each well and incubated at 37°C for 4h before subjecting to plate reading at 450 nm and 690nm using an EnSpire multimode plate reader (PerkinElmer). Background (OD690nm) was subtracted and data were normalized to the control. LC50s were determined by non-linear regression using GraphPad Prism (GraphPad Software Inc., San Diego, California)

[5] = test system: LN229 intracerebral human GBM xenograft; experiment: LN229 intracerebral human GBM xenograft in athymic mice (BLI, survival); assay type: in vivo, mouse; conditions: for median survival time: vehicle 56; for %TGI: day 53, three doses
Procedure: Five-week-old female athymic mice (nu/nu, homozygous: Simonsen Laboratories, Gilroy, CA), housed under aseptic conditions, received intracranial tumor cell injection as previously described and as approved by the University of California San Francisco Institutional Animal Care and Use Committee, Protocol #: AN111064-03. Briefly, mice were anesthetized by intraperitoneal injection of ketamine (100 mg/kg) and xylazine (10 mg/kg) and injected with 3 μL of tumor cell suspension (300,000 cells total) into the right caudate-putamen. Coordinates: 3 mm to the right from bregma, on top of the coronal suture, and 3.5 mm depth. Injection rate: ~30 second/uL. For treatment studies, eight mice were used for each group for LN229 studies and nine mice per group for U251 studies. Treatments began when tumors entered the log-phase of growth as measured by luminescence, for the LN229 experiment on Day 21 and for U251 experiments on Day 14.
Dosing levels and frequency are described in the figure legends.
For bioluminescence imaging (BLI), mice were anesthetized as above, then administered 150 mg/kg of luciferin (D-luciferin potassium salt, Gold Biotechnology, St. Louis, MO) via intraperitoneal injection. Ten minutes after luciferin injection, mice were examined for tumor bioluminescence with an IVIS Lumina imaging station and Living Image software (Caliper Life Sciences, Alameda, CA), and regions of interest were recorded as photons per second per steradian per square cm.

AM38 cells = experiment: Cell viability assay (CellTiter-Glo), AM38; assay type: cell-based; conditions: Homo sapiens, AM-38; Cell Line: AM38; read-out: LC50 (μM ± SD)
Procedure: (§1) In vitro activity of QBS10072S was assessed using a modified clonogenic cell viability assay in 96-well clear-bottom plates. For the LLC-PK1 inducible LAT1-expressing cell line, 1000 cells/well were plated and cells were treated with either butyrate alone (non-induced) or with both butyrate and doxycycline (induced) as described above. For GBM cell lines, 2000 cells/well were plated. On day 2 (GBM) or day 3 (LLC-PK1) after original plating, cells were washed twice with PBS and incubated with 50 μL of various concentrations of QBS10072S in PBS in at least quadruplicate. After 30 minutes at 37°C, 200 μL of growth medium was added to each well. Clonal populations were allowed to grow until the control wells (mock treatment) were near confluence (7 to 10 days). At this point, 170 μL media were removed and 60 μL CellTiter-Glo® (Promega, Madison, WI) were added to each well. Plates were placed on an orbital shaker for three minutes to lyse the cells and then incubated for an additional 10 minutes at RT to stabilize the luminescent signal. Luminescence was recorded using an EnSpire® Multimode Plate Reader (Perkin Elmer). Background (luminescence from wells incubated with 100 μM melphalan or lomustine) was subtracted and data were normalized to the control. EC50s were determined by non-linear regression using GraphPad Prism.

[6] = Maximum tolerated dose in Sprague-Dawley rats; assay type: in vivo, rat; conditions: highest dose 10 mg/kg IV on day zero
Procedure: Figure 7 Maximum tolerated dose in rats Sprague-Dawley rats (4 per arm) were dosed IV on day zero with vehicle or 2.5, 5, or 10 mg/kg of QBS10072S. Animals were monitored for two weeks for body weight changes (A), survival (B), and complete blood counts, including white blood cells (C), neutrophils (D), lymphocytes (E), red blood cells (F), platelets (G), and reticulocytes (H). Cell count results are expressed as cell count per μl. The normal cell count range for each type of cell is between the “max” and “min” lines, and the average value is indicated with a dotted line. Based on allometric scaling, 2.5, 5, and 10 mg/kg in rats is equivalent to 5, 10, and 20 mg/kg.

DBTRG cells = experiment: Cell viability assay (CellTiter-Glo), DBTRG; assay type: cell-based; conditions: Homo sapiens; Cell Line: DBTRG; read-out: LC50 (μM ± SD)
Procedure: as §1

[7] = 2 mg/kg IV once every two weeks
[8] = 4 mg/kg IV once every two weeks
[9] = 8 mg/kg IV once every two weeks

With `Cc1ccc(N(CCCl)CCCl)cc1C[C@H](N)CC(=O)O` [QBS10072S, (+)-(3S)-amino-4-[5-[bis(2-chloroethyl)amino]-2-methyl-phenyl]butanoic acid] the “phosphorylation of H2AX” value [1] was “dose-dependent phosphorylation of H2AX”, the body weights [2] was “not affected” and the “white blood cell counts” value [2] was “not affected”. The CC50 at 30 min [3] was over 10 µM, the “inhibition of tumor growth with intact BBB” value [4] was “still effective for inhibiting tumor growth” and the CC50 (U87-MGMT cells) was 12.8 ± 4.1 µM. For the same compound, the median survival time [5, 7] was 66.5 days, the median survival time [5, 8] was 71 days and the median survival time [5, 9] was 74 days. For the same compound, the “%TGI” value [5, 7] was 72%, the “%TGI” value [5, 8] was 73% and the “%TGI” value [5, 9] was 84%. The CC50 (AM38 cells) was 14 ± 4 µM, the maximum tolerated dose [6] was “the highest dose was greater than the maximum tolerated dose” and the CC50 (DBTRG cells) was 5 ± 2 µM.

— article PMC8482806, “A Novel Blood-Brain Barrier-Permeable Chemotherapeutic Agent for the Treatment of Glioblastoma” (Cureus, 2021)
